Results reported in patent publication US20250002475A1 (EPICS THERAPEUTICS, priority 2023, published 2025).

Key:
[1] = test system: Caov-3 cells; experiment: Caov-3 cellular viability assay (ATP-Lite, 72 h); type: cell-based; conditions: Homo sapiens, ATP-Lite luminescence, % viability relative to DMSO
Outline: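 10000 cells/well treated 72 h at 37 °C, 5% CO2, in RPMI-1640 with 10% FBS and 0.1% DMSO final. Viability by ATP-Lite One Step luminescence. Expressed as % of DMSO control, with IC50 from each compound's concentration-response curve.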

[2] = test system: Kasumi-1 cells; experiment: Kasumi-1 cellular viability assay (ATP-Lite, 72 h); type: cell-based; conditions: Homo sapiens, ATP-Lite luminescence, % viability relative to DMSO
Outline: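 Kasumi-1 AML cells, 15000/well in RPMI-1640 with 10% FBS, were exposed to compound titrations (0.1% final DMSO) for 72 h at 37 °C, 5% CO2. ATP-Lite One Step luminescence gave % viability versus DMSO control, and IC50 came from the concentration-response.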

[3] = biological target: T1, recombinant METTL3/METTL14 complex (Homo sapiens, UniProt Q86U44); experiment: METTL3/14 Scintillation Proximity Assay (SPA), RNA methyltransferase activity; type: biochemical; conditions: 5.31 nM METTL3/14 complex, 250 nM RNA substrate, 1 μM 3H-SAM, 90 min; for compounds marked * best of the two separated forms
T1 construct: purchased Active Motif 311970; host or cells: Sf9 cells
T1 sequence (Q86U44 whole entry): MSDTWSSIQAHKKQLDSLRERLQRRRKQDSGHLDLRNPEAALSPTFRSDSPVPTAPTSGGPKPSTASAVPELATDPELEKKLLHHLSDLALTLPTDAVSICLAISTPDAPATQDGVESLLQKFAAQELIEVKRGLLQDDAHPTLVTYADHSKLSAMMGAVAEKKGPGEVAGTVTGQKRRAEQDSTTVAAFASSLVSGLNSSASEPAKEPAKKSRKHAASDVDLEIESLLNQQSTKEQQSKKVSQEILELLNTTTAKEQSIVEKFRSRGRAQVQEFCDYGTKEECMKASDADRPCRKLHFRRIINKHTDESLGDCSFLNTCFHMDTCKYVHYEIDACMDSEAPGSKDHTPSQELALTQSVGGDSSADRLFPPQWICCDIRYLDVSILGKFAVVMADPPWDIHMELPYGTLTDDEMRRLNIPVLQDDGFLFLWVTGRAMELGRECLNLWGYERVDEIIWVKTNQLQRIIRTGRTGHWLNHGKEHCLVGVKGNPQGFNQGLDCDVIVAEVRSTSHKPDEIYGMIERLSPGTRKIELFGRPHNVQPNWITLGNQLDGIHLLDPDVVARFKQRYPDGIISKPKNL
T1 sequence (Q9HCE5 whole entry partner): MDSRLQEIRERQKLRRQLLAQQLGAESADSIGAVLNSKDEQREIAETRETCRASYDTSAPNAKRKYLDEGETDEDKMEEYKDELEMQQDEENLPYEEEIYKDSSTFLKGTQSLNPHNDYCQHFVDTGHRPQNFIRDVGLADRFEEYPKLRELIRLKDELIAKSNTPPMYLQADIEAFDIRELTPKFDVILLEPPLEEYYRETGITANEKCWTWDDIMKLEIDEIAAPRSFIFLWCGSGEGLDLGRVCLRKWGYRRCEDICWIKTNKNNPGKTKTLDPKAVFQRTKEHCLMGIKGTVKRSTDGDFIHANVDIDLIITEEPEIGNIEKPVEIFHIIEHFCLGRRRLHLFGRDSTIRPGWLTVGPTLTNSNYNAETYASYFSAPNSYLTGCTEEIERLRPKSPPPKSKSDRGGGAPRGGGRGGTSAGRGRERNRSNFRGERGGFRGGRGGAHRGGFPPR

IC50 [3] [nM]	Compound	IC50 [1] [nM]	IC50 [2] [nM]
≤ 50	c1cc(C2(n3cc(-c4cncc(N5CC6CC6C5)n4)nn3)COC2)ncc1N1CCC[C@@H](NCC2CC2)C1 (stereo partly drawn) [Compound 216, (3R)-1-(6-(3-(4-(6-(3-azabicyclo[3.1.0]hexan-3-yl)pyrazin-2-yl)-1H-1.2.3-triazol-1-yl)oxetan-3-yl)pyridin-3-yl)-N-(cyclopropylmethyl)piperidin-3-amine]	≤ 500	≤ 500
≤ 50	CN(C)c1cncc(-c2cn(C3(c4ccc(N5CCC[C@@H](NCC6CC6)C5)cn4)COC3)nn2)c1 [Compound 184, (R)-5-(1-(3-(5-(3-((cyclopropylmethyl)amino)piperidin-1-yl)pyridin-2-yl)oxetan-3-yl)-1H-1,2,3-triazol-4-yl)-N,N-dimethylpyridin-3-amine]	≤ 500	≤ 500
≤ 50	CC(n1cc(-c2cncc(N3CC4CC4C3)n2)nn1)n1ccc(N2CCC[C@@H](NCC3CC3)C2)cc1=O (single isomer, unassigned) [Compound 234]	≤ 500	≤ 500
≤ 50	O=C(Nc1cncc(N2CCCC2)n1)C1(c2ccc(N3CCC[C@@H](NCC4CC4)C3)cn2)COC1 [Compound 248, (R)-3-(5-(3-((cyclopropylmethyl)amino)piperidin-1-yl)pyridin-2-yl)-N-(6-(pyrrolidin-1-yl)pyrazin-2-yl)oxetane-3-carboxamide]	≤ 500	≤ 500
≤ 50	c1cc(C2(n3cc(-c4cncc(N5CC6(COC6)C5)n4)nn3)COC2)ncc1N1CCC[C@@H](NCC2CC2)C1 [Compound 221, (R)-1-(6-(3-(4-(6-(2-oxa-6-azaspiro[3.3]heptan-6-yl)pyrazin-2-yl)-1H-1,2,3-triazol-1-yl)oxetan-3-yl)pyridin-3-yl)-N-(cyclopropylmethyl)piperidin-3-amine]	500 to 5000	500 to 5000
≤ 50	c1cc(C2(n3cc(-c4cncc(C5CC5)n4)nn3)COC2)ncc1N1CCC[C@@H](NCC2CC2)C1 [Compound 323, (R)-N-(cyclopropylmethyl)-1-(6-(3-(4-(6-cyclopropylpyrazin-2-yl)-1H-1,2,3-triazol-1-yl)oxetan-3-yl)pyridin-3-yl)piperidin-3-amine]	≤ 500	≤ 500
≤ 50	c1cc(C2(c3nnc(-c4cncc(N5CCCC5)n4)s3)COC2)ncc1N1CCC[C@@H](NCC2CC2)C1 [Compound 369, (R)-N-(cyclopropylmethyl)-1-(6-(3-(5-(6-(pyrrolidin-1-yl)pyrazin-2-yl)-1,3,4-thiadiazol-2-yl)oxetan-3-yl)pyridin-3-yl)piperidin-3-amine]	≤ 500	≤ 500
≤ 50	c1ncc(C2CC2)cc1-c1cn(C2(c3ccc(N4CCC[C@@H](NC5CCC5)C4)cn3)COC2)nn1 [Compound 334, (R)-N-cyclobutyl-1-(6-(3-(4-(5-cyclopropylpyridin-3-yl)-1H-1,2,3-triazol-1-yl)oxetan-3-yl)pyridin-3-yl)piperidin-3-amine]	≤ 500	≤ 500
≤ 50	CC1(CN[C@@H]2CCCN(c3ccc(C4(c5nnc(-c6cncc(N7CCCC7)n6)s5)COC4)nc3)C2)CC1 [Compound 367, (R)-N-((1-methylcyclopropyl)methyl)-1-(6-(3-(5-(6-(pyrrolidin-1-yl)pyrazin-2-yl)-1,3,4-thiadiazol-2-yl)oxetan-3-yl)pyridin-3-yl)piperdin-3-amine]	≤ 500	≤ 500
≤ 50	CC(c1ccc(N2CCC[C@@H](NCC3CC3)C2)nn1)n1cnc(-c2cncc(N3CCCC3)n2)c1 (single isomer, unassigned) [Compound 340]	≤ 500	≤ 500
≤ 50	c1cnn(-c2cncc(-c3cn(C4(c5ccc(N6CCC[C@@H](NCC7CCC7)C6)cn5)COC4)nn3)n2)c1 [Compound 289, (R)-1-(6-(3-(4-(6-(1H-pyrazol-1-yl)pyrazin-2-yl)-1H-1,2,3-triazol-1-yl)oxetan-3-yl)pyridin-3-yl)-N-(cyclobutylmethyl)piperidin-3-amine]	≤ 500	≤ 500
≤ 50	COc1cncc(-c2cn(C(C)c3ccc(N4CCC[C@@H](NCC5CCC5)C4)nn3)nn2)n1 (single isomer, unassigned) [Compound 258]	500 to 5000	500 to 5000
≤ 50	CC(n1cc(-c2cncc(N(C)C)n2)nn1)n1ccc(N2CCC[C@@H](NCC3CCC3)C2)cc1=O (stereo partly drawn) [Compound 164, 4-((R)-3-((cyclobutylmethyl)amino)piperidin-1-yl)-1-(1-(4-(6-(dimethylamino)pyrazin-2-yl)-1H-1,2,3-triazol-1-yl)ethyl)pyridin-2(1H)-one]	≤ 500	≤ 500
≤ 50	CC(c1ccc(N2CCC[C@@H](NCC3CCC3)C2)cn1)n1cc(-c2cncc(-n3cccn3)n2)nn1 (single isomer, unassigned) [Compound 293]	500 to 5000	500 to 5000

The remaining lines, values behind:

Compound	IC50 [3] [nM]	IC50 [1] [nM]	IC50 [2] [nM]
CC(c1cnn(-c2cncc(N3CCCC3)n2)c1)n1ccc(N2CCC[C@@H](NCC3CC3)C2)cc1=O (single isomer, unassigned) [Compound 220]	≤ 50	≤ 500	≤ 500
COc1cncc(-n2cc(Cn3ccc(N4CCC[C@@H](NCC5CCC5)C4)cc3=O)cn2)c1 [Compound 107, (R)-4-(3-((cyclobutylmethyl)amino)piperidin-1-yl)-1-((1-(5-methoxypyridin-3-yl)-1H-pyrazol-4-yl)methyl)pyridin-2(1H)-one]	≤ 50	≤ 500	≤ 500
O=C(NCc1ccc(N2CCC[C@@H](NCC3CCC3)C2)nn1)c1cc(=O)n2ccsc2n1 [Compound 010, (R)-N-((6-(3-((cyclobutylmethyl)amino)piperidin-1-yl)pyridazin-3-yl)methyl)-5-oxo-5H-thiazolo[3,2-a]pyrimidine-7-carboxamide]	50 to 500	> 5000	> 5000
COc1cncc(-c2cn(Cc3ccc(N4CCC[C@@H](NCC5CCC5)C4)cc3)cn2)c1 [Compound 144, (R)-N-(cyclobutylmethyl)-1-(4-((4-(5-methoxypyridin-3-yl)-1H-imidazol-1-yl)methyl)phenyl)piperidin-3-amine]	≤ 50	500 to 5000	500 to 5000
CC(NC(=O)c1cc(=O)n2ccccc2n1)c1ccc(N2CCC[C@@H](NCC3CCC3)C2)nn1 (single isomer, unassigned) [Compound 051]	≤ 50	500 to 5000	> 5000
CC(n1cc(-c2cncc(N3CCCC3)c2)nn1)n1ccc(N2CCC[C@@H](NCC3CCC3)C2)cc1=O (single isomer, unassigned) [Compound 160]	≤ 50	≤ 500	≤ 500
COc1cncc(-c2cn(C(C)c3ccc(N4CCC[C@@H](NCC5CCC5)C4)cn3)cn2)c1 (stereo partly drawn) [Compound 276, (3R)—N-(cyclobutylmethyl)-1-(6-(1-(4-(5-methoxypyridin-3-yl)-1H-imidazol-1-yl)ethyl)pyridin-3-yl)piperidin-3-amine]	≤ 50	≤ 500	500 to 5000
CC(C(=O)Nc1cncc(N2CCCC2)c1)n1ccc(N2CCC[C@@H](NCC3CCC3)C2)cc1=O (stereo partly drawn) [Compound 208, 2-(4-((R)-3-((cyclobutylmethyl)amino)piperidin-1-yl)-2-oxopyridin-1(2H)-yl)-N-(5-(pyrrolidin-1-yl)pyridin-3-yl)propanamide]	≤ 50	500 to 5000	500 to 5000
COc1cnc(C#N)c(-c2cn(Cc3ccc(N4CCC[C@@H](NCC5CCC5)C4)nn3)nn2)c1 [Compound 019, (R)-3-(1-((6-(3-((cyclobutylmethyl)amino)piperidin-1-yl)pyridazin-3-yl)methyl)-1H-1,2,3-triazol-4-yl)-5-methoxypicolinonitrile]	≤ 50	> 5000	> 5000
COc1cncc(-c2cn(C(C)c3ccc(N4CCC[C@@H](NCC5CCC5)C4)nn3)cn2)c1 (stereo partly drawn) [Compound 182, (3R)—N-(cyclobutylmethyl)-1-(6-(1-(4-(5-methoxypyridin-3-yl)-1H-imidazol-1-yl)ethyl)pyridazin-3-yl)piperidin-3-amine]	≤ 50	≤ 500	500 to 5000
CC(n1cnc(-c2cncc(N(C)C)c2)c1)n1ccc(N2CCC[C@@H](NCC3CCC3)C2)cc1=O (single isomer, unassigned) [Compound 166]	≤ 50	≤ 500	≤ 500
O=C(Nc1cc(=O)n2ccccc2n1)C1(c2ccc(N3CCC[C@@H](NCC4CCC4)C3)cc2)COC1 [Compound 278, (R)-3-(4-(3-((cyclobutylmethyl)amino)piperidin-1-yl)phenyl)-N-(4-oxo-4H-pyrido[1,2-a]pyrimidin-2-yl)oxetane-3-carboxamide]	≤ 50	≤ 500	≤ 500
c1ncc(-c2cn(C3(c4ccc(N5CCC[C@@H](NCC6CCC6)C5)cn4)COC3)nn2)cc1OC1CCC1 [Compound 307, (R)-1-(6-(3-(4-(5-cyclobutoxypyridin-3-yl)-1H-1,2,3-triazol-1-yl)oxetan-3-yl)pyridin-3-yl)-N-(cyclobutylmethyl)piperidin-3-amine]	≤ 50	≤ 500	≤ 500
